Calls of active or inactive are those of the source. The calls are words filed in the database; no cut-off is given here.
Key:
[1] = molecular target: Serine/threonine-protein kinase pim-1 (Homo sapiens) (UniProt P11309); experiment: Inhibition of PIM1 (unknown origin) at 10 uM by Ambit Kinomescan binding assay
[2] = molecular target: T1, Serine/threonine-protein kinase tousled-like 1 (Homo sapiens) (UniProt Q9UKI8); experiment: Inhibition of TLK1 (unknown origin) at 10 uM by Ambit Kinomescan binding assay
T1 sequence (whole entry): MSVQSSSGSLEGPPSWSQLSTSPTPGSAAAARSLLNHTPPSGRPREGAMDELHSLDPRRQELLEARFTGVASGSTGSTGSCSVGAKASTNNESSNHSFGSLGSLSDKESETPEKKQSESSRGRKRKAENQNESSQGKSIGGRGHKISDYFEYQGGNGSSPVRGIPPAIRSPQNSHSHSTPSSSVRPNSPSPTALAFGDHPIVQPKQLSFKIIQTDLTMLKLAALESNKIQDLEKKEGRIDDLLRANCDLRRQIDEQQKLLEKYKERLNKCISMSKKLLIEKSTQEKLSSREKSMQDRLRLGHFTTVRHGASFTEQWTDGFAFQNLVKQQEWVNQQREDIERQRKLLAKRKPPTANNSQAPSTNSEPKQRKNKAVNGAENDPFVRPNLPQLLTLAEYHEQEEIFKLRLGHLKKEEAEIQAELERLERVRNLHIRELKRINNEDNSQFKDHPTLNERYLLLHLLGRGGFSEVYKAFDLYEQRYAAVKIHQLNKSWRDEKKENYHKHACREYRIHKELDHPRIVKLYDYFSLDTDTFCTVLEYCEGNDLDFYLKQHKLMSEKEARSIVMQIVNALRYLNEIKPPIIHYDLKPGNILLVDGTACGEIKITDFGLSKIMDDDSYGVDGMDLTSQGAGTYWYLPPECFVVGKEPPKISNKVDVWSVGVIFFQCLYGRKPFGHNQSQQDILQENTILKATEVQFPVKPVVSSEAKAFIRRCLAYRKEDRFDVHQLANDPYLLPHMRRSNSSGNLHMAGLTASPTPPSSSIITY

[3] = molecular target: T2, Serine/threonine-protein kinase ULK3 (Homo sapiens) (UniProt Q6PHR2); experiment: Inhibition of ULK3 Lys2 labeling site in human A-375 cells at 0.05 uM by KiNativ Profiling analysis relative to control; assay type: cell-based
T2 sequence (whole entry): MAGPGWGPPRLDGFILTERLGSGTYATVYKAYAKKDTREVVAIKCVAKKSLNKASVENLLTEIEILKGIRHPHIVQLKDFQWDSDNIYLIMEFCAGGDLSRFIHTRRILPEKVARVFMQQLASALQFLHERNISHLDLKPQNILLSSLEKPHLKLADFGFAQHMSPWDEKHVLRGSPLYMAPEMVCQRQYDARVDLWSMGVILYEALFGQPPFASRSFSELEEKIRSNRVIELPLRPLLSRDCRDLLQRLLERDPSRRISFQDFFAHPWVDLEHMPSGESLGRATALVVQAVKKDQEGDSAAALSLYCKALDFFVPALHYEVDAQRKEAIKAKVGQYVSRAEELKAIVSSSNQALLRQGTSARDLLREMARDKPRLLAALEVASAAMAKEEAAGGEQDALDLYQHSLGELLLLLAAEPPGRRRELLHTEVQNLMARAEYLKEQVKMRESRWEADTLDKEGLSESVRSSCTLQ

[4] = molecular target: MAST1/MAST2 (Homo sapiens) (UniProt Q9Y2H9+Q6P0Q8); experiment: Inhibition of MAST1/2 K2 labeling site in human Huh-7 cells at 10 uM by KiNativ Profiling analysis relative to control; assay type: cell-based
[5] = molecular target: Muscle, skeletal receptor tyrosine-protein kinase (Homo sapiens) (UniProt O15146); experiment: Inhibition of MUSK (unknown origin) at 10 uM by Ambit Kinomescan binding assay relative to control; values are per cent of control
[6] = molecular target: Serine/threonine-protein kinase 38-like (Homo sapiens) (UniProt Q9Y2H1); experiment: Inhibition of NDR2 ACT labeling site in human A-375 cells at 5 uM by KiNativ Profiling analysis relative to control; assay type: cell-based
[7] = molecular target: T3, Inhibitor of nuclear factor kappa-B kinase subunit beta (Homo sapiens) (UniProt O14920); experiment: Inhibition of IKK-beta (unknown origin) at 1 uM by Ambit Kinomescan binding assay relative to control; values are per cent of control
T3 sequence (whole entry): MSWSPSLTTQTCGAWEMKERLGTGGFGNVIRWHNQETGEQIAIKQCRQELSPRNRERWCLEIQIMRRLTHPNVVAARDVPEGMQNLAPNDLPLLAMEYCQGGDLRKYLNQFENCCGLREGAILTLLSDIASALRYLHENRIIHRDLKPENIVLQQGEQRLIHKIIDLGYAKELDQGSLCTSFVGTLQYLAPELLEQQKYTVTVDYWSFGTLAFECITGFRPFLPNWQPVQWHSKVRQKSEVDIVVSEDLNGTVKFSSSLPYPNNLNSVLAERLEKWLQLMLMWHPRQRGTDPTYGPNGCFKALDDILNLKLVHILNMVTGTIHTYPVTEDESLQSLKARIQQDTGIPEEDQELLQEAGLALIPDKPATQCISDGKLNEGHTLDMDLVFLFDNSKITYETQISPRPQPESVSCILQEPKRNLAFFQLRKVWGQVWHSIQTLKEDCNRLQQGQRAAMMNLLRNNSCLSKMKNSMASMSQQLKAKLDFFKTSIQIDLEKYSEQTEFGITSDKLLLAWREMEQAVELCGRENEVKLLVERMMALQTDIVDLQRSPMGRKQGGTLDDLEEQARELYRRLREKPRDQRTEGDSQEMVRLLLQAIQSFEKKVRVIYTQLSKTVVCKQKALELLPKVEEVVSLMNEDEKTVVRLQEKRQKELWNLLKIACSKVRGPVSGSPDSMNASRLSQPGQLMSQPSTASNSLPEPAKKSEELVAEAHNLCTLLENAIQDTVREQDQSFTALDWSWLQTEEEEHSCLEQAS

Sequence of MAST1/MAST2 (Homo sapiens) (Q6P0Q8 whole entry, looked up): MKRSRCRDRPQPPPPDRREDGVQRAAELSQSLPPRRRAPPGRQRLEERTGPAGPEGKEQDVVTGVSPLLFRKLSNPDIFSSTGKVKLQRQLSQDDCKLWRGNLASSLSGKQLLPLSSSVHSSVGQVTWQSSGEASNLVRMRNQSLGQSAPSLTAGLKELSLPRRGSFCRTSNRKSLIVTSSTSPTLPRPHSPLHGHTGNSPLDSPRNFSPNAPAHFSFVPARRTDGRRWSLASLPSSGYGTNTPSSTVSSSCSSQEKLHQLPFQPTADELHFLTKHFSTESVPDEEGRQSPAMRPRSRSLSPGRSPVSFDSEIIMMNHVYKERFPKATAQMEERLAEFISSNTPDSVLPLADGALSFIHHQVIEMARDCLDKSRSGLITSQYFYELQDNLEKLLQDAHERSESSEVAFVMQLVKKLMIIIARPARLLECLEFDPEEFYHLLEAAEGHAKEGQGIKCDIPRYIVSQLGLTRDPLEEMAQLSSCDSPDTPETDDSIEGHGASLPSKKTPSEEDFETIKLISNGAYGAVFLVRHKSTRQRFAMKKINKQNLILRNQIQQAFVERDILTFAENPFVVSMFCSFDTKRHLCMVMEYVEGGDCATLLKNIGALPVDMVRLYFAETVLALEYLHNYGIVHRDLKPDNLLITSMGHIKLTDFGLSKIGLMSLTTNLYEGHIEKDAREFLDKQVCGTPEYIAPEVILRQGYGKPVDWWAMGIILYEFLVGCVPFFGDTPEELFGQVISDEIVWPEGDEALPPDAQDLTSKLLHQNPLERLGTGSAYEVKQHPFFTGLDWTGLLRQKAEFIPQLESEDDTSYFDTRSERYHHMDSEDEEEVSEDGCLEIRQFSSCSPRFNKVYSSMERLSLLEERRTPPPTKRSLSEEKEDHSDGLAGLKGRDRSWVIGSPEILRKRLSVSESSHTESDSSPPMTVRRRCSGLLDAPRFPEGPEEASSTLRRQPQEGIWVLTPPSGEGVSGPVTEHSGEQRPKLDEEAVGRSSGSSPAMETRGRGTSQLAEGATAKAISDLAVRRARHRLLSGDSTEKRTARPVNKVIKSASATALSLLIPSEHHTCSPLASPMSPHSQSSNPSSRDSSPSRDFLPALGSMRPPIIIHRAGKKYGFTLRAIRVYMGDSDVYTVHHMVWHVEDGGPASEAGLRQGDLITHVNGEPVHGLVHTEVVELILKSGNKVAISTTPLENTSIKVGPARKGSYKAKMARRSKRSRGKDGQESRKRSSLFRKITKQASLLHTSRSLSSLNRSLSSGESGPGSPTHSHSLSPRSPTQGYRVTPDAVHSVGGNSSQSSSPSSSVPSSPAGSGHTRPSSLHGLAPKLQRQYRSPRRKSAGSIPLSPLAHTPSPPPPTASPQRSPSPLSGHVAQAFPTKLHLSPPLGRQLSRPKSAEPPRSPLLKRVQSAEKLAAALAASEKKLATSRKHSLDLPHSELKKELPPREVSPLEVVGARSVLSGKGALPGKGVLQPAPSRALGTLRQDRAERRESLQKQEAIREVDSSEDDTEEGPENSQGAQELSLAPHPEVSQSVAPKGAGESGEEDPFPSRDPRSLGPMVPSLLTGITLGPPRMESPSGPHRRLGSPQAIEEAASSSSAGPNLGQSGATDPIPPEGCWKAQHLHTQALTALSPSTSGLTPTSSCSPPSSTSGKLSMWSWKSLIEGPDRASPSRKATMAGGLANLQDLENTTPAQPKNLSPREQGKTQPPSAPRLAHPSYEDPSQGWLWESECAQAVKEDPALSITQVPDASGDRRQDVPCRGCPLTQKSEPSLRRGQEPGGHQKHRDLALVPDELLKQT
Sequence of MAST1/MAST2 (Homo sapiens) (Q9Y2H9 whole entry, looked up): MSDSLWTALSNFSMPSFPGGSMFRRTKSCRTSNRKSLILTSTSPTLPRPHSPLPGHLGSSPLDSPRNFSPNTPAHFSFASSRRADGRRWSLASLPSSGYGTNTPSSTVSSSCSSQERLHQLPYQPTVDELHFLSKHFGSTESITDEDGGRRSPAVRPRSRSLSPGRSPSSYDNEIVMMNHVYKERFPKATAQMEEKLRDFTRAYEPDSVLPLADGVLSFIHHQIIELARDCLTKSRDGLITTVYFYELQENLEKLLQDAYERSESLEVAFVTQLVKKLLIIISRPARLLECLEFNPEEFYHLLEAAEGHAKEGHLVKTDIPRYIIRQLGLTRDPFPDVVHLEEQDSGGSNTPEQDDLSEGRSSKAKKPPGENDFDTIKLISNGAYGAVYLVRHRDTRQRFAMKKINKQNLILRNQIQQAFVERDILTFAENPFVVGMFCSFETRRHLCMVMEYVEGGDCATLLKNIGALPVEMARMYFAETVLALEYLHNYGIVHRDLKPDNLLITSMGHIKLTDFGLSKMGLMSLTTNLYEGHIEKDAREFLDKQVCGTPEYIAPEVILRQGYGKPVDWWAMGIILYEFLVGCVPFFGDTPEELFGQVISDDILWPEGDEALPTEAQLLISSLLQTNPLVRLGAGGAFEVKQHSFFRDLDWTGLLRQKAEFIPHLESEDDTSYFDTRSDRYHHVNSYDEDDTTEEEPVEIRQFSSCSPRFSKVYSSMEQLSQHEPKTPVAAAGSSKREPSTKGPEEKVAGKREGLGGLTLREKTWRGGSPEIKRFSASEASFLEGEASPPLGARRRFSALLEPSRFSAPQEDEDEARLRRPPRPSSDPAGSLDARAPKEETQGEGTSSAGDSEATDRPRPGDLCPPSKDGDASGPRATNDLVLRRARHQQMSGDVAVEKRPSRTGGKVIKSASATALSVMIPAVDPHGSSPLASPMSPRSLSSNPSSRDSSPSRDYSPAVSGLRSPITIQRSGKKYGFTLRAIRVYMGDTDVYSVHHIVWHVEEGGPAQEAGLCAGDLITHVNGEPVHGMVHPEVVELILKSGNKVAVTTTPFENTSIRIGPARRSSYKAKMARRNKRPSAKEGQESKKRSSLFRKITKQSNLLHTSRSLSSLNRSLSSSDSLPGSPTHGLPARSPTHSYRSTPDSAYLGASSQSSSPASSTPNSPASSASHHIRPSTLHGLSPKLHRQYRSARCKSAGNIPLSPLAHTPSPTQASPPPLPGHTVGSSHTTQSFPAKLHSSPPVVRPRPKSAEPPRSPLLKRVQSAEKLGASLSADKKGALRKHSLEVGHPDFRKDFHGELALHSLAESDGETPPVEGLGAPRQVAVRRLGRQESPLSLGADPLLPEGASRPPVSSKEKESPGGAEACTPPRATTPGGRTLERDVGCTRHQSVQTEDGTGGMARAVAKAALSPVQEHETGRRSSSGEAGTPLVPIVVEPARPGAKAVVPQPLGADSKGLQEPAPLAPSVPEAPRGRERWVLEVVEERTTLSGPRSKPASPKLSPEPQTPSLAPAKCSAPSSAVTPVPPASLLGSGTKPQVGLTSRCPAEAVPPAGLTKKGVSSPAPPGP
Sequence of Serine/threonine-protein kinase 38-like (Homo sapiens) (Q9Y2H1 2-464 limits assumed): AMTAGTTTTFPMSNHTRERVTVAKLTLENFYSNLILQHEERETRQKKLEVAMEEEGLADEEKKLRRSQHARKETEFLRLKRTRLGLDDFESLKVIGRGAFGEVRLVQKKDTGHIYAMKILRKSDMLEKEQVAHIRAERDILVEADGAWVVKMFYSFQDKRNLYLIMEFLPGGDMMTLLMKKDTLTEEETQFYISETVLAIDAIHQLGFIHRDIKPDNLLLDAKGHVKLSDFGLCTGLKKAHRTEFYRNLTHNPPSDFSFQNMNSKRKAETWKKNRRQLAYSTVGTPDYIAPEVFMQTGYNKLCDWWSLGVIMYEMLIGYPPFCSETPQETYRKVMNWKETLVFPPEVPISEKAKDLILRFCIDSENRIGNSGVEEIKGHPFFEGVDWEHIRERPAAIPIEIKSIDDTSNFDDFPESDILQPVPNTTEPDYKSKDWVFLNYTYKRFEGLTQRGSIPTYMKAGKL
Sequence of Muscle, skeletal receptor tyrosine-protein kinase (Homo sapiens) (O15146 whole entry): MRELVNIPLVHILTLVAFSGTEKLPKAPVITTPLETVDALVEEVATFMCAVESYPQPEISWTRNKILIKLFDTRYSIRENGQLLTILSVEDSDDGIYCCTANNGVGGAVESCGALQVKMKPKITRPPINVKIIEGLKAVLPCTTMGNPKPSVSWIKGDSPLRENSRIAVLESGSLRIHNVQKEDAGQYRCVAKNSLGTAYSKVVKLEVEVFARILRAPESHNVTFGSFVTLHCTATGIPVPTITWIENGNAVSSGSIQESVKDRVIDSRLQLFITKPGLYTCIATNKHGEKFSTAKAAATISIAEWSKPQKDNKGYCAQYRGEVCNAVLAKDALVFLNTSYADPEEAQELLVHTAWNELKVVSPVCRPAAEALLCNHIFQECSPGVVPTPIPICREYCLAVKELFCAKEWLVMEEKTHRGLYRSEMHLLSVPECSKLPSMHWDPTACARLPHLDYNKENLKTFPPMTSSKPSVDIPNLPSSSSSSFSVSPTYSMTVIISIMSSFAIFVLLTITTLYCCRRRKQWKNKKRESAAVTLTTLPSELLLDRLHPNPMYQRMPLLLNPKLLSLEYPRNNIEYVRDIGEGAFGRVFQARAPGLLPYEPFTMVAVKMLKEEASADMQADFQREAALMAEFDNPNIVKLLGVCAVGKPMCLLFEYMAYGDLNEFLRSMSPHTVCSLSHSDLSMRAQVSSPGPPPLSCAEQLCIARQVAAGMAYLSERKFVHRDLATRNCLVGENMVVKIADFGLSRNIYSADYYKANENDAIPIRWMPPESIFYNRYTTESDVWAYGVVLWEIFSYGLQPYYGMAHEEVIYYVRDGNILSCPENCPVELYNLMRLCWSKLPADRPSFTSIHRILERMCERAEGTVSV
Sequence of Serine/threonine-protein kinase pim-1 (Homo sapiens) (P11309 whole entry, looked up): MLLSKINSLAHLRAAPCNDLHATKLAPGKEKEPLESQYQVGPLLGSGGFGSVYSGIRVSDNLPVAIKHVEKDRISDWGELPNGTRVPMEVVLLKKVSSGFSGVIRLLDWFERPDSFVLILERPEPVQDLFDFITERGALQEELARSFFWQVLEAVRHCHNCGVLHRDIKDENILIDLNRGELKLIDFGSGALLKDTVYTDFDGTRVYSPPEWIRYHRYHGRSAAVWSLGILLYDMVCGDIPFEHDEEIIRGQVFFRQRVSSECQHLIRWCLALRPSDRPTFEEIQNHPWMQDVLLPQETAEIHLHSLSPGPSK

CCN1CCN(Cc2ccc(NC(=O)c3ccc(C)c(Oc4ccnc5[nH]ccc45)c3)cc2C(F)(F)F)CC1
inhibition [1]: inactive | inhibition [2]: inactive | inhibition [3]: 6.7% | inhibition [4]: 17.6% | % of control [5]: 0.2%

CCN1CCN(Cc2ccc(NC(=O)c3ccc(C)c(/C=C/c4cnc5[nH]ccc5c4OC)c3)cc2C(F)(F)F)CC1
inhibition [6]: -2.6% | residual activity [7]: 5.7%

From ChEMBL document CHEMBL5696442, “Discovery of type II inhibitors of TGFβ-activated kinase 1 (TAK1) and mitogen-activated protein kinase kinase kinase kinase 2 (MAP4K2)” (J Med Chem, 2015)
